Legend:
Settings in all cases: incubation time: 72 h
[1] = test system: CAL-148; experiment: normalised viability (% of control), CellTiter-Blue; higher = more viable cells (about 100 = DMSO control)
Procedure: (§1)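 DSRT, CellTiter-Blue viability, 72 h incubation. Signal is normalised to DMSO and benzethonium chloride controls. Value is the normalised response at dose 7.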

[2] = test system: CAL-51; experiment: as above
Procedure: as §1

[3] = test system: CAL-85-1; experiment: as above
Procedure: as §1

[4] = test system: DU-4475; experiment: as above
Procedure: as §1

[5] = test system: HDQ-P1; experiment: as above
Procedure: as §1

[6] = test system: MDA-MB-453; experiment: as above
Procedure: as §1

[7] = test system: CAL-120; experiment: normalised response (% of control), CellTox Green; higher = less cell death (100 = DMSO, 0 = benzethonium chloride kill control)
In short: (§2)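 Breast cancer cell lines (20 µl suspension) were seeded into 384-well plates holding compound at 5 concentrations in 10-fold steps over a compound-specific 10,000-fold range, then incubated 72 h. CellTox Green fluorescence (485/520 nm) was read first, then CellTiter-Glo luminescence after 10 min at room temperature. Each plate was normalised to 0.1 % DMSO (100) and a positive kill control (0). Each value is the normalised signal at a single concentration of the series.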

[8] = test system: CAL-148; experiment: as above
In short: as §2

[9] = test system: CAL-51; experiment: as above
In short: as §2

[10] = test system: CAL-85-1; experiment: as above
In short: as §2

[11] = test system: DU-4475; experiment: as above
In short: as §2

[12] = test system: HCC1143; experiment: as above
In short: as §2

[13] = test system: HCC1937; experiment: as above
In short: as §2

[14] = test system: HDQ-P1; experiment: as above
In short: as §2

[15] = test system: Hs578T; experiment: as above
In short: as §2

[16] = test system: MDA-MB-436; experiment: as above
In short: as §2

[17] = test system: MDA-MB-453; experiment: as above
In short: as §2

[18] = test system: MDA-MB-468; experiment: as above
In short: as §2

[19] = test system: MFM-223; experiment: as above
In short: as §2

COc1cc2c(Oc3ccc(NC(=O)C4(C(=O)Nc5ccc(F)cc5)CC4)cc3F)ccnc2cc1OCCCN1CCOCC1 [Foretinib] (100 nM)
normalised viability [1]: 92.8%
normalised viability [2]: 85.4%
normalised viability [3]: 84.7%
normalised viability [4]: 100%
normalised viability [5]: 77.3%
normalised viability [6]: 91.1%
normalised response [7]: 101%
normalised response [8]: 102%
normalised response [9]: 94.2%
normalised response [10]: 100%
normalised response [11]: 101%
normalised response [12]: 106%
normalised response [13]: 111%
normalised response [14]: 109%
normalised response [15]: 83.7%
normalised response [16]: 102%
normalised response [17]: 107%
normalised response [18]: 97.5%
normalised response [19]: 101%

Cn1nnc2c(C(N)=O)ncn2c1=O [Temozolomide] (1000 nM)
normalised viability [1]: 113%
normalised viability [2]: 89.7%
normalised viability [3]: 104%
normalised viability [4]: 101%
normalised viability [5]: 100%
normalised viability [6]: 93.6%
normalised response [7]: 103%
normalised response [8]: 95.8%
normalised response [9]: 87.6%
normalised response [10]: 108%
normalised response [11]: 100%
normalised response [12]: 50.4%
normalised response [13]: 96.6%
normalised response [14]: 100%
normalised response [15]: 94.3%
normalised response [16]: 80.5%
normalised response [17]: 105%
normalised response [18]: 106%
normalised response [19]: 52%

O=NN(CCCl)C(=O)NC1CCCCC1 [Lomustine] (1000 nM)
normalised viability [1]: 92.3%
normalised viability [2]: 110%
normalised viability [3]: 93.3%
normalised viability [4]: 90.6%
normalised viability [5]: 97.6%
normalised viability [6]: 94.4%
normalised response [7]: 103%
normalised response [8]: 106%
normalised response [9]: 112%
normalised response [10]: 98.6%
normalised response [11]: 99.4%
normalised response [12]: 108%
normalised response [13]: 120%
normalised response [14]: 55.3%
normalised response [15]: 98.3%
normalised response [16]: 84.8%
normalised response [17]: 103%
normalised response [18]: 128%
normalised response [19]: 97%

C[C@]12C=CC(=O)C=C1CC[C@@H]1[C@@H]2C(=O)C[C@@]2(C)[C@H]1CC[C@]2(O)C(=O)CO [Prednisone] (1000 nM)
normalised viability [1]: 101%
normalised viability [2]: 93.1%
normalised viability [3]: 94.2%
normalised viability [4]: 96.3%
normalised viability [5]: 122%
normalised viability [6]: 96.7%
normalised response [7]: 102%
normalised response [8]: 73%
normalised response [9]: 112%
normalised response [10]: 103%
normalised response [11]: 101%
normalised response [12]: 105%
normalised response [13]: 113%
normalised response [14]: 94.4%
normalised response [15]: 105%
normalised response [16]: 101%
normalised response [17]: 100%
normalised response [18]: 83.2%
normalised response [19]: 84.2%

O=C(O)CC[C@H]1CC[C@@](c2cc(F)ccc2F)(S(=O)(=O)c2ccc(Cl)cc2)CC1 [MK-0752] (100 nM)
normalised viability [1]: 122%
normalised viability [2]: 101%
normalised viability [3]: 102%
normalised viability [4]: 122%
normalised viability [5]: 110%
normalised viability [6]: 109%
normalised response [7]: 101%
normalised response [8]: 59%
normalised response [9]: 116%
normalised response [10]: 97%
normalised response [11]: 107%
normalised response [12]: 105%
normalised response [13]: 96%
normalised response [14]: 109%
normalised response [15]: 97.3%
normalised response [16]: 110%
normalised response [17]: 111%
normalised response [18]: 165%
normalised response [19]: 94%

Nc1nc(Cl)nc2c1ncn2[C@@H]1O[C@H](CO)[C@@H](O)[C@@H]1F [Clofarabine] (1000 nM)
normalised viability [1]: 40.8%
normalised viability [2]: 52.1%
normalised viability [3]: 56.1%
normalised viability [4]: 29%
normalised viability [5]: 101%
normalised viability [6]: 53.6%
normalised response [7]: 103%
normalised response [8]: 67.1%
normalised response [9]: 12.1%
normalised response [10]: 88.3%
normalised response [11]: 103%
normalised response [12]: 112%
normalised response [13]: 109%
normalised response [14]: 101%
normalised response [15]: 95.3%
normalised response [16]: 105%
normalised response [17]: 113%
normalised response [18]: 145%
normalised response [19]: 99%

— the supplement of paper PMC4862054
